In patent US10294202B2, “Pyrrolidinones as herbicides” (FMC Corporation, priority 2013, dated 2019):

Tests used:
galium = assay: Test A postemergence herbicide test; assay type: in vivo, Galium aparine
Procedure, shortened: (§1)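 Ratings compare treated with untreated plants roughly 10 days after a postemergence application made at the one- to two-leaf stage. Scoring uses 0–100, where 0 means no effect and 100 complete control.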

ryegrass, Italian = assay: Test A pre-/postemergence herbicide test; assay type: in vivo, Lolium multiflorum; conditions: for Plant response rating, Ryegrass, Italian: 0 to 100 scale
Procedure, shortened: (§2)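 Greenhouse pot test with pre- and postemergence application of surfactant-containing solvent formulations. Postemergence plants were 2–10 cm, one- to two-leaf stage. Response scored visually after ~10 days, 0 (no effect) to 100 (complete control).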

wheat = assay: Test A pre-/postemergence herbicide test; assay type: in vivo, Triticum aestivum
Procedure, shortened: as §2

blackgrass = assay: Test A postemergence herbicide test; assay type: in vivo, Alopecurus myosuroides
Procedure, shortened: as §1

rice = assay: Test C flooded paddy test; assay type: in vivo, Oryza sativa; conditions: Flood
Procedure, shortened: (§3)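 Visual ratings from 0, no effect, to 100, complete control, were made against untreated controls after 13–15 greenhouse days. Compounds had gone straight into paddy water 3 cm above the soil, kept at that depth, on 2-leaf-stage plants.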

pigweed = assay: Test A pre-/postemergence herbicide test; assay type: in vivo, Amaranthus retroflexus; conditions: for Pigweed plant response rating: Preemergence, visual rating on 0 to 100 scale (0 no effect, 100 complete control)
Procedure, shortened: as §2

corn = assay: Test A pre-/postemergence herbicide test; assay type: in vivo, Zea mays
Procedure, shortened: as §2

barnyardgrass [1] = assay: Test A pre-/postemergence herbicide test; assay type: in vivo, Echinochloa crus-galli; conditions: for Barnyardgrass plant response rating: Preemergence, visual rating on 0 to 100 scale (0 no effect, 100 complete control)
Procedure, shortened: as §2

ragweed = assay: Test A pre-/postemergence herbicide test; assay type: in vivo, Ambrosia elatior; conditions: for Plant response rating, Ragweed: 0 to 100 scale
Procedure, shortened: as §2

barnyardgrass [2] = assay: Test C flooded paddy test; assay type: in vivo, Echinochloa crus-galli; conditions: Flood
Procedure, shortened: as §3

ducksalad = assay: Test C flooded paddy test; assay type: in vivo, Heteranthera limosa; conditions: Flood
Procedure, shortened: as §3

sedge, umbrella = assay: Test C flooded paddy test; assay type: in vivo, Cyperus difformis; conditions: Flood
Procedure, shortened: as §3

kochia = assay: Test A pre-/postemergence herbicide test; assay type: in vivo, Kochia scoparia; conditions: for Plant response rating, Kochia: 0 to 100 scale
Procedure, shortened: as §2

giant foxtail = assay: Test A pre-/postemergence herbicide test; assay type: in vivo, Setaria faberii; conditions: for Plant response rating, Foxtail, Giant: 0 to 100 scale; for Foxtail, Giant plant response rating: Preemergence, visual rating on 0 to 100 scale (0 no effect, 100 complete control)
Procedure, shortened: as §2

morningglory = assay: Test A pre-/postemergence herbicide test; assay type: in vivo, Ipomoea spp.
Procedure, shortened: as §2

crabgrass, large = assay: Test A pre-/postemergence herbicide test; assay type: in vivo, Digitaria sanguinalis
Procedure, shortened: as §2

velvetleaf = assay: Test A pre-/postemergence herbicide test; assay type: in vivo, Abutilon theophrasti
Procedure, shortened: as §2

[3] = 125 g ai/ha, 0 to 100 scale, 0 no effect, 100 complete control
[4] = Postemergence, 125 g ai/ha, 0 no effect, 100 complete control
[5] = Preemergence, 125 g ai/ha, visual rating on 0 to 100 scale (0 no effect, 100 complete control)
[6] = Postemergence, 125 g ai/ha, 0 to 100 scale, 0 no effect, 100 complete control
[7] = 125 g ai/ha, scale of 0 to 100 where 0 is no effect and 100 is complete control, 13 to 15 days
[8] = preemergence, 500 g ai/ha, 0 to 100 scale
[9] = Postemergence, 500 g ai/ha, 0 to 100 scale (0 no effect, 100 complete control)
[10] = preemergence, 500 g ai/ha, 0 to 100 scale (0 no effect, 100 complete control)
[11] = 31 g ai/ha, scale of 0 to 100 where 0 is no effect and 100 is complete control, 13 to 15 days
[12] = 62 g ai/ha, scale of 0 to 100 where 0 is no effect and 100 is complete control, 13 to 15 days

O=C1NCC(c2cccc(C(F)(F)F)c2)C1C(=O)Nc1nnc(C(F)(F)F)s1 (racemic) [Compound 112]
0: Plant response rating, Galium (galium; [3]) | Galium plant response rating (0 to 100 scale, 0 is no effect, 100 is complete control) (galium; 500 g ai/ha) | Plant response rating, Ryegrass, Italian (ryegrass, Italian; [4]) | Ryegrass, Italian plant response rating (0 to 100 scale, 0 is no effect, 100 is complete control) (ryegrass, Italian; Postemergence, 500 g ai/ha) | Ryegrass, Italian plant response rating (ryegrass, Italian; [5]) | Plant response rating, Ryegrass, Italian (ryegrass, Italian; preemergence, 500 g ai/ha) | Plant response rating, Wheat (wheat; [6]) | Wheat plant response rating (0 to 100 scale, 0 is no effect, 100 is complete control) (wheat; Postemergence, 500 g ai/ha) | Plant response rating, Blackgrass (blackgrass; [3]) | Plant response rating, Blackgrass (blackgrass; 500 g ai/ha, 0 to 100 scale (0 no effect, 100 complete control)) | Plant response rating, Rice (rice; [7]) | Plant response rating, Rice (rice; 250 g ai/ha, scale 0 to 100) | Plant response rating, Rice (rice; 500 g ai/ha, scale 0 to 100) | Plant response rating, Rice (rice; 1000 g ai/ha, scale 0 to 100) | Plant response rating, Pigweed (pigweed; [6]) | Pigweed plant response rating (0 to 100 scale, 0 is no effect, 100 is complete control) (pigweed; Postemergence, 500 g ai/ha) | Pigweed plant response rating (pigweed; 125 g ai/ha) | Plant response rating, Pigweed (pigweed; [8]) | Plant response rating, Corn (corn; [6]) | Plant response rating, Corn (corn; [9]) | Plant response rating, Barnyardgrass (barnyardgrass [1]; [6]) | Plant response rating, Barnyardgrass (barnyardgrass [1]; [9]) | Barnyardgrass plant response rating (barnyardgrass [1]; 125 g ai/ha) | Plant response rating, Barnyardgrass (barnyardgrass [1]; [10]) | Plant response rating, Ragweed (ragweed; [4]) | Ragweed plant response rating (0 to 100 scale, 0 is no effect, 100 is complete control) (ragweed; Postemergence, 500 g ai/ha) | Ragweed plant response rating (ragweed; [5]) | Plant response rating, Ragweed (ragweed; preemergence, 500 g ai/ha) | Plant response rating, Barnyardgrass (barnyardgrass [2]; [7]) | Plant response rating, Barnyardgrass (barnyardgrass [2]; 250 g ai/ha, scale 0 to 100) | Plant response rating, Barnyardgrass (barnyardgrass [2]; 500 g ai/ha, scale 0 to 100) | Plant response rating, Barnyardgrass (barnyardgrass [2]; 1000 g ai/ha, scale 0 to 100) | Plant response rating, Ducksalad (ducksalad; [7]) | Plant response rating, Ducksalad (ducksalad; 250 g ai/ha, scale 0 to 100) | Plant response rating, Ducksalad (ducksalad; 500 g ai/ha, scale 0 to 100) | Plant response rating, Ducksalad (ducksalad; 1000 g ai/ha, scale 0 to 100) | Plant response rating, Sedge, Umbrella (sedge, umbrella; [7]) | Plant response rating, Sedge, Umbrella (sedge, umbrella; 250 g ai/ha, scale 0 to 100) | Plant response rating, Sedge, Umbrella (sedge, umbrella; 500 g ai/ha, scale 0 to 100) | Plant response rating, Sedge, Umbrella (sedge, umbrella; 1000 g ai/ha, scale 0 to 100) | Plant response rating, Kochia (kochia; [4]) | Kochia plant response rating (0 to 100 scale, 0 is no effect, 100 is complete control) (kochia; Postemergence, 500 g ai/ha) | Kochia plant response rating (kochia; [5]) | Plant response rating, Kochia (kochia; preemergence, 500 g ai/ha) | Plant response rating, Foxtail, Giant (giant foxtail; [4]) | Foxtail, Giant plant response rating (0 to 100 scale, 0 is no effect, 100 is complete control) (giant foxtail; Postemergence, 500 g ai/ha) | Foxtail, Giant plant response rating (giant foxtail; 125 g ai/ha) | Plant response rating, Foxtail, Giant (giant foxtail; preemergence, 500 g ai/ha)

CC1(C)NC(=O)C(C(=O)Nc2ccccc2F)C1c1ccc(F)c(F)c1 (centres unmarked) [Compound 11]
20: Plant response rating, Barnyardgrass (barnyardgrass [1]; [10]) | Foxtail, Giant plant response rating (giant foxtail; 125 g ai/ha)
70: Crabgrass, Large plant response rating (crabgrass, large; [5])
0: Plant response rating, Morningglory (morningglory; [6]) | Plant response rating, Morningglory (morningglory; [9]) | Morningglory plant response rating (morningglory; [5]) | Plant response rating, Morningglory (morningglory; [8]) | Plant response rating, Crabgrass, Large (crabgrass, large; [6]) | Plant response rating, Velvetleaf (velvetleaf; [6]) | Plant response rating, Velvetleaf (velvetleaf; [9]) | Velvetleaf plant response rating (velvetleaf; [5]) | Plant response rating, Velvetleaf (velvetleaf; [8]) | Plant response rating, Wheat (wheat; [6]) | Plant response rating, Wheat (wheat; [9]) | Wheat plant response rating (wheat; [5]) | Plant response rating, Wheat (wheat; [8]) | Plant response rating, Rice (rice; [11]) | Plant response rating, Rice (rice; [12]) | Plant response rating, Rice (rice; [7]) | Plant response rating, Rice (rice; 250 g ai/ha, scale 0 to 100) | Plant response rating, Pigweed (pigweed; [6]) | Plant response rating, Pigweed (pigweed; [9]) | Pigweed plant response rating (pigweed; 125 g ai/ha) | Plant response rating, Pigweed (pigweed; [8]) | Plant response rating, Corn (corn; [6]) | Plant response rating, Corn (corn; [9]) | Corn plant response rating (corn; [5]) | Plant response rating, Corn (corn; [8]) | Plant response rating, Barnyardgrass (barnyardgrass [1]; [6]) | Barnyardgrass plant response rating (barnyardgrass [1]; 125 g ai/ha) | Plant response rating, Barnyardgrass (barnyardgrass [2]; [11]) | Plant response rating, Barnyardgrass (barnyardgrass [2]; [12]) | Plant response rating, Barnyardgrass (barnyardgrass [2]; [7]) | Plant response rating, Barnyardgrass (barnyardgrass [2]; 250 g ai/ha, scale 0 to 100) | Plant response rating, Ducksalad (ducksalad; [11]) | Plant response rating, Ducksalad (ducksalad; [12]) | Plant response rating, Ducksalad (ducksalad; [7]) | Plant response rating, Ducksalad (ducksalad; 250 g ai/ha, scale 0 to 100) | Plant response rating, Sedge, Umbrella (sedge, umbrella; [11]) | Plant response rating, Sedge, Umbrella (sedge, umbrella; [12]) | Plant response rating, Sedge, Umbrella (sedge, umbrella; [7]) | Plant response rating, Sedge, Umbrella (sedge, umbrella; 250 g ai/ha, scale 0 to 100) | Plant response rating, Foxtail, Giant (giant foxtail; [4])
90: Plant response rating, Crabgrass, Large (crabgrass, large; [8])
50: Plant response rating, Crabgrass, Large (crabgrass, large; [9]) | Plant response rating, Barnyardgrass (barnyardgrass [1]; [9]) | Plant response rating, Foxtail, Giant (giant foxtail; preemergence, 500 g ai/ha)
